Measured values published in article PMC6338342 (Journal of chromatography. B, Analytical technologies in …, 2016).
Like-named read-outs stand apart in the source and are kept apart here.

Assays:
[1] = rat, in vivo, po
3T3-L1 cells = test: Adipocyte differentiation and Oil Red O staining; format: cell-based; settings: 1 or 10 μM, Oil Red O staining on day 8
in vivo = settings: male, Sprague-Dawley, rat, po
UMR106 cells = test: MTT cell proliferation assay; format: cell-based; settings: 0.01, 0.1, 1, 10 μM, 24 h
UMR 106 cells = test: Alkaline phosphatase; format: cell-based; settings: 0.01, 0.1, 1 μM, 48 h
[2] = male, Sprague-Dawley, rat, in vivo, po, 3 g/kg
[3] = male, Sprague-Dawley, rat, in vivo, po, 6 g/kg
[4] = male, Sprague-Dawley, rat, in vivo, po, 12 g/kg
[5] = rat serum, oral XLGB extract 3 g/kg, n = 6
[6] = rat serum, oral XLGB extract 6 g/kg, n = 6
[7] = rat serum, oral XLGB extract 12 g/kg, n = 6
[8] = male, Sprague-Dawley, rat, serum, po, 3 g/kg
[9] = male, Sprague-Dawley, rat, serum, po, 6 g/kg
[10] = male, Sprague-Dawley, rat, serum, po, 12 g/kg

CC(C)=CCc1cc2c(cc1O)oc(=O)c1c3ccc(O)cc3oc21 [Psoralidin, psoralidin]
AUC0–∞ ([1]; 6 g/kg): 11.58 ± 0.94 ng·h/mL
AUC(0-t) ([1]; 6 g/kg): 8.80 ± 1.38 ng·h/mL
MRT0–t ([1]; 6 g/kg): 1.78 ± 0.36 h
MRT0–∞ ([1]; 6 g/kg): 3.13 ± 0.36 h
AUC0–∞ ([1]; 12 g/kg): 34.27 ± 16.04 ng·h/mL
AUC(0-t) ([1]; 12 g/kg): 27.78 ± 13.97 ng·h/mL
MRT0–t ([1]; 12 g/kg): 2.05 ± 0.45 h
MRT0–∞ ([1]; 12 g/kg): 2.78 ± 0.68 h
effect on adipogenesis of 3T3-L1 cells (3T3-L1 cells): obviously inhibited adipocyte formation

O=c1ccc2ccc3occc3c2o1 [Isopsoralen, isopsoralen]
AUC(0-inf) [2]: 2470 ± 494 ng·h/mL
AUC(0-t) [2]: 2390 ± 460 ng·h/mL
Cmax [2]: 270 ± 35 ng/mL
MRT inf [2]: 8.73 ± 3.76 h
MRT last [2]: 7.49 ± 2.83 h
Tmax [2]: 3.5 ± 2.49 h
half-life [2]: 6.88 ± 4.89 h
AUC(0-t) [3]: 15100 ± 1290 ng·h/mL
Cmax [3]: 1140 ± 100 ng/mL
MRT inf [3]: 12.2 ± 0.75 h
MRT last [3]: 11.7 ± 0.83 h
Tmax [3]: 3.67 ± 0.52 h
half-life [3]: 6.78 ± 1.09 h
AUC(0-inf) [4]: 19900 ± 2020 ng·h/mL
AUC(0-t) [4]: 19400 ± 2000 ng·h/mL
Cmax [4]: 1240 ± 72.2 ng/mL
MRT inf [4]: 14.2 ± 1.43 h
MRT last [4]: 13.3 ± 0.43 h
Tmax [4]: 1.67 ± 0.41 h
half-life [4]: 6.86 ± 3.44 h

COc1ccc(-c2oc3c(CC=C(C)C)c(O[C@@H]4O[C@H](CO)[C@@H](O)[C@H](O)[C@H]4O)cc(O)c3c(=O)c2O[C@@H]2O[C@@H](C)[C@H](O)[C@@H](O)[C@H]2O[C@@H]2O[C@@H](C)[C@H](O)[C@@H](O)[C@H]2O)cc1 [Epimedin C, epimedin C]
AUC0–∞ ([1]; 3 g/kg): 69.33 ± 37.54 ng·h/mL
AUC(0-t) ([1]; 3 g/kg): 21.70 ± 3.40 ng·h/mL
MRT0–t ([1]; 3 g/kg): 1.41 ± 1.01 h
MRT0–∞ ([1]; 3 g/kg): 20.72 ± 19.70 h
AUC0–∞ ([1]; 6 g/kg): 1365.29 ± 80.31 ng·h/mL
AUC(0-t) ([1]; 6 g/kg): 1361.31 ± 79.46 ng·h/mL
MRT0–t ([1]; 6 g/kg): 1.45 ± 0.08 h
MRT0–∞ ([1]; 6 g/kg): 1.47 ± 0.08 h
AUC0–∞ ([1]; 12 g/kg): 4527.69 ± 474.54 ng·h/mL
AUC(0-t) ([1]; 12 g/kg): 4397.49 ± 435.63 ng·h/mL
MRT0–t ([1]; 12 g/kg): 3.07 ± 0.63 h
MRT0–∞ ([1]; 12 g/kg): 5.10 ± 4.50 h

bavachinin
AUC0–∞ [5]: 53.60 ± 27.93 ng·h/mL
AUC(0-t) [5]: 31.63 ± 11.39 ng·h/mL
Cmax [5]: 10.25 ± 2.84 ng/mL
MRT0–t [5]: 6.26 ± 4.26 h
MRT0–∞ [5]: 18.47 ± 15.68 h
Tmax [5]: 0.50 ± 0 h
t1/2 [5]: 11.51 ± 9.48 h
AUC0–∞ [6]: 406.85 ± 56.64 ng·h/mL
AUC(0-t) [6]: 346.62 ± 36.95 ng·h/mL
Cmax [6]: 20.41 ± 2.63 ng/mL
MRT0–t [6]: 19.50 ± 3.03 h
MRT0–∞ [6]: 28.15 ± 8.89 h
Tmax [6]: 1.25 ± 1.04 h
t1/2 [6]: 19.08 ± 8.31 h
AUC0–∞ [7]: 379.76 ± 59.32 ng·h/mL
AUC(0-t) [7]: 343.30 ± 61.62 ng·h/mL
Cmax [7]: 36.00 ± 4.29 ng/mL
MRT0–t [7]: 13.56 ± 2.69 h
MRT0–∞ [7]: 18.40 ± 3.38 h
Tmax [7]: 1.58 ± 0.38 h
t1/2 [7]: 12.57 ± 3.06 h

CC(C)=CCc1cc(-c2coc3cc(O)ccc3c2=O)ccc1O [Neobavaisoflavone, neobavaisoflavone]
AUC(0-inf) [8]: 7.24 ± 6.25 ng·h/mL
AUC(0-t) [8]: 2.1 ± 0.78 ng·h/mL
Cmax [8]: 1.46 ± 0.38 ng/mL
MRT last [8]: 1.57 ± 0.81 h
Tmax [8]: 0.5 h
half-life [8]: 6.28 ± 7.25 h
AUC(0-inf) [9]: 60.6 ± 41 ng·h/mL
AUC(0-t) [9]: 41.1 ± 19 ng·h/mL
Cmax [9]: 10.7 ± 0.59 ng/mL
MRT inf [9]: 19.3 ± 20.7 h
MRT last [9]: 9.13 ± 9.19 h
Tmax [9]: 0.58 ± 0.2 h
half-life [9]: 11.2 ± 9.11 h
AUC(0-inf) [10]: 127 ± 32.3 ng·h/mL
AUC(0-t) [10]: 110 ± 30.3 ng·h/mL
Cmax [10]: 18.4 ± 5.4 ng/mL
MRT inf [10]: 17.2 ± 9.5 h
MRT last [10]: 8.79 ± 2.43 h
half-life [10]: 16.2 ± 10.3 h

O=c1ccc2cc3ccoc3cc2o1 [Psoralen, psoralen]
AUC(0-inf) [8]: 2810 ± 701 ng·h/mL
AUC(0-t) [8]: 2740 ± 682 ng·h/mL
Cmax [8]: 290 ± 23.3 ng/mL
MRT inf [8]: 8.4 ± 2.93 h
MRT last [8]: 7.55 ± 2.44 h
Tmax [8]: 4.5 ± 1.22 h
half-life [8]: 6.39 ± 3.73 h
AUC(0-inf) [9]: 18500 ± 529 ng·h/mL
AUC(0-t) [9]: 18300 ± 511 ng·h/mL
Cmax [9]: 1380 ± 150 ng/mL
MRT inf [9]: 12.2 ± 0.9 h
MRT last [9]: 11.8 ± 0.99 h
Tmax [9]: 2.92 ± 1.28 h
half-life [9]: 6.78 ± 1 h
AUC(0-inf) [10]: 28400 ± 877 ng·h/mL
AUC(0-t) [10]: 28300 ± 899 ng·h/mL
Cmax [10]: 1910 ± 118 ng/mL
MRT inf [10]: 13.3 ± 1.18 h
MRT last [10]: 13.2 ± 1.14 h
half-life [10]: 4.2 ± 0.42 h

COc1ccc2c(c1O)-c1c(O)c(OC)cc3c1[C@H](C2)[N+](C)(C)CC3 [Magnoflorine, magnoflorine]
AUC(0-inf) [8]: 320 ± 96.9 ng·h/mL
AUC(0-t) [8]: 264 ± 76.2 ng·h/mL
Cmax [8]: 31.8 ± 4.77 ng/mL
MRT inf [8]: 26.2 ± 8.51 h
MRT last [8]: 16.4 ± 4.54 h
Tmax [8]: 0.5 h
half-life [8]: 20 ± 8.43 h
AUC(0-inf) [9]: 4610 ± 572 ng·h/mL
AUC(0-t) [9]: 2600 ± 249 ng·h/mL
Cmax [9]: 652 ± 64.6 ng/mL
MRT inf [9]: 44.4 ± 6.88 h
MRT last [9]: 17.3 ± 0.63 h
Tmax [9]: 0.67 ± 0.26 h
half-life [9]: 21.8 ± 4.2 h
AUC(0-inf) [10]: 3480 ± 121 ng·h/mL
AUC(0-t) [10]: 3330 ± 130 ng·h/mL
Cmax [10]: 1160 ± 102 ng/mL
MRT inf [10]: 9.43 ± 0.47 h
MRT last [10]: 6.67 ± 0.32 h
Tmax [10]: 1.67 ± 0.26 h
half-life [10]: 13.4 ± 0.75 h

corylin
AUC0–∞ ([1]; 3 g/kg): 86.37 ± 67.67 ng·h/mL
AUC(0-t) ([1]; 3 g/kg): 10.62 ± 3.66 ng·h/mL
MRT0–t ([1]; 3 g/kg): 5.60 ± 5.20 h
MRT0–∞ ([1]; 3 g/kg): 51.11 ± 29.69 h
AUC0–∞ ([1]; 6 g/kg): 227.72 ± 52.75 ng·h/mL
AUC(0-t) ([1]; 6 g/kg): 166.50 ± 26.45 ng·h/mL
MRT0–t ([1]; 6 g/kg): 16.55 ± 4.24 h
MRT0–∞ ([1]; 6 g/kg): 33.27 ± 11.40 h
AUC0–∞ ([1]; 12 g/kg): 442.39 ± 107.76 ng·h/mL
AUC(0-t) ([1]; 12 g/kg): 386.15 ± 84.00 ng·h/mL
MRT0–t ([1]; 12 g/kg): 14.73 ± 1.76 h
MRT0–∞ ([1]; 12 g/kg): 20.65 ± 3.78 h

CC1(C)CC[C@]2(C(=O)O[C@@H]3O[C@H](CO[C@@H]4O[C@H](CO)[C@@H](O)[C@H](O)[C@H]4O)[C@@H](O)[C@H](O)[C@H]3O)CC[C@]3(C)C(=CC[C@@H]4[C@@]5(C)CC[C@H](O[C@@H]6OC[C@H](O)[C@H](O)[C@H]6O)[C@@](C)(CO)[C@@H]5CC[C@]43C)[C@@H]2C1 [Akebia saponin D, akebia saponin D]
AUC0–∞ ([1]; 6 g/kg): 756.83 ± 140.72 ng·h/mL
AUC(0-t) ([1]; 6 g/kg): 731.52 ± 131.54 ng·h/mL
MRT0–t ([1]; 6 g/kg): 2.41 ± 0.25 h
MRT0–∞ ([1]; 6 g/kg): 2.63 ± 0.25 h
AUC0–∞ ([1]; 12 g/kg): 2658.47 ± 241.31 ng·h/mL
AUC(0-t) ([1]; 12 g/kg): 2642.49 ± 233.18 ng·h/mL
MRT0–t ([1]; 12 g/kg): 5.03 ± 0.32 h
MRT0–∞ ([1]; 12 g/kg): 5.91 ± 0.50 h

C=C[C@H]1[C@H](O[C@@H]2O[C@H](CO)[C@@H](O)[C@H](O)[C@H]2O)OC=C2C(=O)OCC[C@H]21 [Sweroside, sweroside]
AUC(0-inf) (in vivo; 3 g/kg): 452 ± 50.3 ng·h/mL
AUC(0-t) (in vivo; 3 g/kg): 313 ± 39.1 ng·h/mL
Cmax (in vivo; 3 g/kg): 35.6 ± 2.27 ng/mL
MRT inf (in vivo; 3 g/kg): 31.7 ± 4.64 h
Tmax (in vivo; 3 g/kg): 1.17 ± 0.26 h
half-life (in vivo; 3 g/kg): 21.3 ± 3.33 h
AUC(0-inf) (in vivo; 6 g/kg): 690 ± 110 ng·h/mL
AUC(0-t) (in vivo; 6 g/kg): 598 ± 59.4 ng·h/mL
Cmax (in vivo; 6 g/kg): 135 ± 10.2 ng/mL
MRT inf (in vivo; 6 g/kg): 16.7 ± 7.3 h
MRT last (in vivo; 6 g/kg): 8.31 ± 2.11 h
half-life (in vivo; 6 g/kg): 13.8 ± 7.36 h
AUC(0-inf) (in vivo; 12 g/kg): 1330 ± 97.9 ng·h/mL
AUC(0-t) (in vivo; 12 g/kg): 1150 ± 35.3 ng·h/mL
Cmax (in vivo; 12 g/kg): 301 ± 19.4 ng/mL
MRT inf (in vivo; 12 g/kg): 19.2 ± 6.86 h
MRT last (in vivo; 12 g/kg): 8.25 ± 0.83 h
Tmax (in vivo; 12 g/kg): 0.5 h
half-life (in vivo; 12 g/kg): 23.7 ± 12.3 h
effect on proliferation of UMR 106 cells (UMR106 cells): excellent bioactivities
effect on alkaline phosphatase (ALP) activity of UMR 106 cells (UMR 106 cells): excellent bioactivities
effect on adipogenesis of 3T3-L1 cells (3T3-L1 cells): excellent bioactivities
